Like-named read-outs stand apart in the source and are kept apart here. Square brackets hold non-standard residues; d marks the D form. Ends that are not written are not given here. Peptide text beside a SMILES is read from it. * marks the point of attachment. N(3,4-(MeO)2phenethyl)Gly = COc1ccc(CCNCC(=O)O)cc1OC; Farnesyl = CC(C)=CCC/C(C)=C/CC/C(C)=C/C*; Gly(NCH2CH2Ph) = O=C(O)CNCCc1ccccc1; Gly(N-cHex) = O=C(O)CNC1CCCCC1; NMeV = CN[C@H](C(=O)O)C(C)C; N(iPr)Gly = CC(C)NCC(=O)O; Nphe = O=C(O)CNCc1ccccc1; Nleu = CC(C)CNCC(=O)O
What was measured:
[1] = biological target: T1, FT (Bos taurus, UniProt P29702+P49355); experiment: Inhibitor farnesylation assay (alternative substrate); format: biochemical, bovine; settings: incubated with FT and [3H]farnesylpyrophosphate in the absence of Ras
T1 construct: Partial purification of FT from bovine brain; from tissue; host or cells: bovine brain
Method: The third assay checked whether the inhibitor itself undergoes farnesylation. For this purpose, the inhibitor was incubated with the FT enzyme and [^3 H]farnesylpyrophosphate in the absence of Ras.
For examination whether the inhibitors undergo farnesylation a previously described procedure (Goldstein et al., J. Biol. Chem., 1991, 266: 15575) was used. Each reaction mixture contained the following components in a final volume of […]: 40 mM TRIS.HCl pH 7.5, 67 mM NaCl, 5 mM MgCl2, 7 mM ZnCl2, 1 mM DTT, 0.07% (v/v) octyl-b-D-glucopyranoside, 20 pmol of [^3 H]farnesylpyrophosphate 45,000 dpm/pmol, 4 mM peptide or peptoid, and 1 mg of partially purified FT. After incubation at 37° C. for 30 minutes, the entire reaction mixture was spotted onto an aluminum backed Silica Gel thin layer sheet (20×20 cm, Merck), and placed in a tank containing n-propyl-alcohol/ammonium hydroxide/water (6:3:1, v/v/v). The chromatogram was run for 4 hours, sprayed with EN^3 HANCE (Dupont) and exposed to RX film (FUJI) for 4 days at -70° C.

[2] = biological target: T2, Farnesyl protein transferase (FT) (Bos taurus, UniProt P29702+P49355); experiment: Farnesyl protein transferase (FT) inhibition assay; format: biochemical, bovine; settings: for IC50: partially purified FT, Gst-HRas substrate
T2 construct: Partial purification of FT from bovine brain; from tissue; host or cells: bovine brain
Method: FT activity was quantified by measuring the incorporation of [^3 H]farnesyl from all-trans-[^3 H]farnesylpyrophosphate into purified Gst-HRas.
Partial purification of FT from bovine brain was performed essentially as described by Reiss at al. (Reiss et al, Cell, 1990, 62: 81), except that a fractogel DEAE column (150×16 mm, Merck) was used for the ion exchange chromatagraphy step. GST-HRas expression vector was constructed by cloning the Hras gene into a pGEX-1 vector, and expressed in E. coli strain TG1. The protein was purified using glutathione agarose (Sigma USA). FT inhibition assays were run in 96-well dishes in a reaction volume of […]. The final reaction mixture contained 5 mM GST-HRas, 0.9 mM [^3 H]farnesylpyrophosphate 20,000 dmp/pmol (NEN-Dupont), 1 mg of partially purified FT, 5 mM MgCl2, 3 mM ZnCl2, 40 mM TRIS.HCl pH 7.5, 60 mM NaCl, 1 mM DTT, 0.2 mM Glutathione, 0.03% Octyl-b-D-glucopyranoside, and serial dilutions of inhibitor.
Following incubation at 37° C. for 30 minutes the reactions were stopped by adding 100 ml of 4% sodium dodecyl sulfate (SDS) followed by 100 ml of 30% trichloroacetic acid (TCA). Plates were incubated for 100 minutes on ice, and the precipitates were filtered using a Millipore milliblot™-system (Millipore Corp., Bedford Mass.) with GF/C membranes. The wells were washed twice with 200 ml of 2% SDS/6% TCA and 7 times with […] of 6% TCA. The filters were punched into 4 ml vials and dried at 70° C. for 10 minutes. 3 ml of scintillation fluid was added and radioactivity was monitored by scintillation counting. IC50 values were resolved from dose-response curves of percent control versus log drug concentration, using the Regression program (Blackwell, UK). Each compound was tested 2-4 times.

[3] = biological target: T3, Geranylgeranyl transferase-I (GGT) (Bos taurus, UniProt P29702+Q5EAD5); experiment: Geranylgeranyl transferase-I (GGT) inhibition assay; format: biochemical, bovine; settings: partially purified GGT, Gst-HRas-CVLL substrate
T3 construct: GGT was partially purified from bovine brain; from tissue; host or cells: bovine brain cytosol
Text: The second assay estimated the selectivity of the inhibitor towards FT over a related enzyme, geranylgeranyl-protein-transferase-I (GGT), which transfers a C20 -isoprenoid to a thiol group of cysteine of a C-terminal CAAL (SEQ ID NO:17) peptide sequence derived from geranylgeranylpyrophosphate. Geranylgeranylation of normal cellular proteins is 5-10 times more common than farnesylation (Gibbs et al., Cell, 1994, 77: 175; Gibbs, Cell, 1991, 65: 1; Maltese,. FASEB J., 1990, 4: 3319).
A selective FT-inhibitor is considered to cause fewer cytotoxic effects than a nonselective inhibitor of both FT and GGT. GGT activity, for the partially purified GGT enzyme (Moores et al., J. Biol. Chem., 1991, 266: 14603), was quantified by measuring the incorporation of [^3 H]geranylgeranyl from all trans [^3 H]geranylgeranylpyrophosphate, into purified Gst-HRas-CVLL.
GGT was partially purified from bovine brain. Cytosol was prepared and GGT was isolated using a fractogel DEAE column (150×16 mm, Merck) with NaCl gradient, as for FT purification (see Example 15 above). Fractions containing the GGT activity were pooled and stored at -70° C. Hras gene was point mutated using an oligonucleotide directed in vitro mutagenesis system (Amersham version 2.1). The mutated Hras gene was cloned into the GST--frame of a pGEX-1 expression vector, expressed in E. coli strain TG1, and a fusion protein Gst-HRas-CVLL (SEQ ID NO:22) was purified on glutathione agarose.

[4] = system: Ras processing in cells transformed with v-ras; settings: cited from earlier work
[5] = biological target: farnesyl protein transferase (Homo sapiens, UniProt P49354+P49356); settings: cited from earlier work; for farnesyl protein transferase inhibitory potency in vitro: literature
[6] = system: Rap1A/K-rev processing in v-Ha-ras transformed NIH3T3 cells; experiment: Protein processing assay in intact cells: Rap1A/K-rev; format: cell-based
Method: Its selectivity towards FT as compared to GGT in whole cells, was determined by its relative inhibitory effects on Ras farnesylation and on Rap1A/Krev geranylgeranylation (Casey, J. Lipid Res. 1992, 33, 1731-1740; Cox et al., Curr. Opin. Cell Biol. 1992, 4, 1008-1016; Garcia et al., J. Biol. Chem. 1993, 268, 18415-18418; and Vogt et al., J. Biol. Chem. 1995, 270, 660-664), respectively. v-Ha-ras transformed NIH3T3 cells were incubated with lovastatin or increasing concentrations of the inhibitor. Cells were lysed and the processed and unprocessed forms of Ras or Rap1A were separated by SDS-PAGE and immunoblotted with anti-Ras or anti-Rap1A antibodies, respectively.
To test the selectivity of compound 12 towards FT in whole cells, the post-translational processing of an endogenous geranylgeranylated protein, Rap1A/K-rev, was analyzed.
v-Ha-ras transformed NIH3T3 fibroblasts were treated with 15 mM lovastatin or the indicated concentrations of compound 12 or vehicle (0.25 mM DTT, 0.25% DMSO), for 48 hr. Cells were lysed (Garcia et al., J. Biol. Chem. 1993, 268, 18415-18418) in 1% Nonidet P-40, 5 mM TRIS.HCl pH 8.0, 5 mM EDTA, 1 mM phenylmethylsulfonyl fluoride, 10 mg/ml aprotonin, 10 mg/ml soybean trypsin inhibitor and 313 mg/ml benzamidine. The lysate was separated by centriflgation and the supernatant used as cell extract. […]

[7] = system: Ras processing in v-Ha-ras transformed NIH3T3 cells; experiment: Protein processing assay in intact cells: Ras; format: cell-based; settings: western blot
Method: Its selectivity towards FT as compared to GGT in whole cells, was determined by its relative inhibitory effects on Ras farnesylation and on Rap1A/Krev geranylgeranylation (Casey, J. Lipid Res. 1992, 33, 1731-1740; Cox et al., Curr. Opin. Cell Biol. 1992, 4, 1008-1016; Garcia et al., J. Biol. Chem. 1993, 268, 18415-18418; and Vogt et al., J. Biol. Chem. 1995, 270, 660-664), respectively. v-Ha-ras transformed NIH3T3 cells were incubated with lovastatin or increasing concentrations of the inhibitor. Cells were lysed and the processed and unprocessed forms of Ras or Rap1A were separated by SDS-PAGE and immunoblotted with anti-Ras or anti-Rap1A antibodies, respectively. Lovastatin is a compound which blocks the processing of isoprenylated proteins in cells by inhibiting an early step of the isoprenoid biosynthetic pathway, and therefore serves as a positive control for the inhibition of both geraylgeranylation and farnesylation (Kohl et al., Science 1993, 260, 1934-1937; Garcia et al., J. Biol. Chem. 1993, 268, 18415-18418; Vogt et al., J. Biol. Chem. 1995, 270, 660-664).
After 48 hr of incubation, cell extracts were separated on SDS-PAGE and immunoblotted with anti-Ras antibody.
Cells were lysed (Garcia et al., J. Biol. Chem. 1993, 268, 18415-18418) in 1% Nonidet P-40, 5 mM TRIS.HCl pH 8.0, 5 mM EDTA, 1 mM phenylmethylsulfonyl fluoride, 10 mg/ml aprotonin, 10 mg/ml soybean trypsin inhibitor and 313 mg/ml benzamidine. The lysate was separated by centriflgation and the supernatant used as cell extract. Total protein was separated by SDS-PAGE (40 mg/lane) in 15% acrylamide (0.4% bis-acrylamide) gels, transferred onto nitrocellulose (Schleicher & Schuell, optitran BA-S 85) and probed with anti-Ras antibody Y13-259, or monoclonal anti-Rap1A/K-rev antibody (transduction laboratories). The western blots were visualized using an enhanced chemiluminescence (ECL) detection system.

Compound | alternative substrate (inhibitor itself farnesylated) [1] | IC50 [2] | IC50 [3] | other results
CC[C@H](C)[C@H](NC[C@@H](NC[C@@H](N)CS)[C@@H](C)CC)C(=O)N[C@@H](CCO)C(=O)O [L-731,735, N-{2(S)-[2(R)-amino-3-mercaptopropylamino]-3(S)-methylpentyl}isoleucyl-homoserine] | – | – | – | effect on Ras processing in cells [4]: no effect on Ras processing; farnesyl protein transferase inhibitory potency in vitro [5]: potent and selective inhibitor
CSCC[C@H](NC(=O)CN(C(=O)[C@H](C(C)C)N(C)C(=O)[C@@H](N)CS)C1CCCCC1)C(=O)O [Semipeptoid 11, cysteinyl-(Nα-methyl)valyl-(Nα-cyclohexyl)glycyl-methionine] (H-C[NMeV][Gly(N-cHex)]M-OH) | – | 0.0012 µM | 0.91 µM | alternative substrate (inhibitor itself farnesylated) ([1]; listed as 11): no; alternative substrate (inhibitor itself farnesylated) ([1]; listed as compound 11): non-farnesylated; increase of selectivity versus compound 4 ([2]; FT over GGT, versus compound 4): 11 fold; IC50 (GGT)/IC50 (FT) ([2]; selectivity ratio): 758; improvement of potency versus compound 4 (FT) ([2]; versus compound 4): 58 fold
CSCC[C@H](NC(=O)CN(CCc1ccccc1)C(=O)[C@@H](NC(=O)[C@@H](N)CS)C(C)C)C(=O)O [Semipeptoid 2, cysteinyl-valyl-(Nα-phenethyl)glycyl-methionine] (H-CV[Gly(NCH2CH2Ph)]M-OH) | no | 0.32 µM | 30 µM | reduction of relative potency versus compound 1 (FT) ([2]; versus compound 1): 3.2 fold
COc1ccc(CCN(CC(=O)N[C@@H](CCSC)C(=O)O)C(=O)CN(C(=O)[C@@H](N)CS)C(C)C)cc1OC [Semipeptoid 6, cysteinyl-(Nα-isopropyl)glycyl-(Nα-3,4-dimetoxyphenethyl)glycyl-methionine] (H-C[N(iPr)Gly][N(3,4-(MeO)2phenethyl)Gly]M-OH) | no | 4 µM | 80 µM | –
CSCC[C@H](NC(=O)CN(C(=O)[C@@H](NC(=O)[C@@H](N)CS)C(C)C)C1CCCCC1)C(=O)O [Semipeptoid 4, cysteinyl-valyl-(Nα-cyclohexyl)glycyl-methionine] (H-CV[Gly(N-cHex)]M-OH) | no | 0.07 µM | 5 µM | –
methyl ester Derivative of cysteinyl-(Nα-methyl)valyl-(Nα-cyclohexyl)glycyl-methionine [Semipeptoid 12] | – | – | – | effect on Rap1A/K-rev processing [6]: not affected; concentration range of dose dependent shift of Ras towards its unprocessed form ([7]; 48 hr incubation): 1 to 160 mM; IC50 ([7]; 48 hr incubation, read-out: in situ IC50 (shift of Ras towards its unprocessed form)): 10 µM
COc1ccc(CCN(CC(=O)N[C@@H](CCSC)C(=O)O)C(=O)[C@@H](NC(=O)[C@@H](N)CS)C(C)C)cc1OC [Semipeptoid 3, cysteinyl-valyl-(Nα-3,4-dimetoxyphenethyl)glycyl-methionine] (H-CV[N(3,4-(MeO)2phenethyl)Gly]M-OH) | no | 0.12 µM | 23 µM | times more potent than compound 6 (FT) ([2]; versus compound 6): 33 times
CC[C@H](C)[C@@H](CO[C@@H](Cc1ccccc1)C(=O)N[C@@H](CCS(C)(=O)=O)C(=O)O)NC[C@@H](N)CS [L-739,750] | – | – | – | farnesyl protein transferase inhibitory potency in vitro [5]: potent inhibitor
CVLS: CAAX tetrapeptide (SEQ ID NO:18); the result concerns its farnesylated form (C(Farnesyl)VLS) | – | – | – | fold less potent as inhibitor: farnesylated peptide versus its corresponding tetrapeptide ([5]; farnesylated form of the peptide): about 13 fold
CC[C@H](C)C(=O)O[C@H]1C[C@@H](C)C=C2C=C[C@H](C)[C@H](CC[C@@H]3C[C@@H](O)CC(=O)O3)[C@H]21 [lovastatin, reference compound] | – | – | – | effect on Rap1A/K-rev processing ([6]; 48 hr, western blot): did inhibit Rap1A/K-rev processing; effect on Ras processing ([7]; 48 hr, compared with vehicle): increased amount of unprocessed Ras versus processed Ras
CSCC[C@H](NC(=O)CN(Cc1ccccc1)C(=O)CN(CCN(C)C)C(=O)[C@@H](N)CS)C(=O)O [Semipeptoid 7, cysteinyl-(Nα(N,N-dimethylaminoethyl))glycyl-(Nα-benzyl)glycyl-methionine] | no | 3 µM | 40 µM | –

Continued, in another order:

alternative substrate (inhibitor itself farnesylated) [1] | IC50 [2] | IC50 [3] | Compound | other results
no | 13 µM | 190 µM | CSCC[C@H](NC(=O)CN(Cc1ccccc1)C(=O)CN(C(=O)[C@@H](N)CS)C(C)C)C(=O)O [Semipeptoid 5, cysteinyl-(Nα-isopropyl)glycyl-(Nα-benzyl)glycyl-methionine] (H-C[N(iPr)Gly][Nphe]M-OH) | –
no | 4 µM | > 400 µM | CSCC[C@H](NC(=O)[C@H](Cc1ccccc1)NC(=O)CN(CCN(C)C)C(=O)[C@@H](N)CS)C(=O)O [Semipeptoid 9, cysteinyl-(Nα(N,N-dimethylaminoethyl))glycyl-phenylalanyl-methionine] | –
no | 0.1 µM | 40 µM | CSCC[C@H](NC(=O)CN(Cc1ccccc1)C(=O)[C@@H](NC(=O)[C@@H](N)CS)C(C)C)C(=O)O [Semipeptoid 1, cysteinyl-valyl-(Nα-benzyl)glycyl-methionine] (H-CV[Nphe]M-OH) | fold more potent than compound 5 (FT) ([2]; versus compound 5): 130 fold; fold more potent than compound 8 (FT) ([2]; versus compound 8): 500 fold
no | 75 µM | 240 µM | CSCC[C@H](NC(=O)[C@H](Cc1ccccc1)NC(=O)CN(CC(C)C)C(=O)[C@@H](N)CS)C(=O)O [Semipeptoid 10, cysteinyl-(Nα-isobutyl)glycyl-phenylalanyl-methionine] (H-C[Nleu]FM-OH) | –
no | 50 µM | 155 µM | CSCC[C@H](NC(=O)[C@H](Cc1ccccc1)NC(=O)CN(C(=O)[C@@H](N)CS)C(C)C)C(=O)O [Semipeptoid 8, cysteinyl-(Nα-isopropyl)glycyl-phenylalanyl-methionine] (H-C[N(iPr)Gly]FM-OH) | –

— US5990277A, “Semipeptoid farnesyl protein transferase inhibitors and analogs thereof” (Yissum Research Development Company of the Herbrew …, priority 1996, dated 1999)
